Earlier results, collected in PMC8201753 (ACS Medicinal Chemistry Letters, 2021).

Tested on: ERα-dependent cells
Details: cited from earlier work

In the case of `C=CC(C)(C)OC[C@H]1O[C@H](O[C@@H]2C3=C([C@H](C)COC(C)=O)C[C@H](O)[C@]3(C)/C=C3/[C@@H](COC)CC[C@H]3[C@@H](C)[C@H]2O)[C@H](O)[C@@H](OC(C)=O)[C@@H]1O` [FC-A, fusicoccin-A], the “Growth of ERα-dependent cells” value is given as “blocks growth”.
